Consider three sequences from US5340800A, “Peptide medicaments for the treatment of disease” (priority 1992, dated 1994).

Like-named read-outs stand apart in the source and are kept apart here. No end group written: not given here.

Assay [1] has as its system polymorphonuclear leukocyte adhesion to TNF activated endothelial cells. The format is cell-based, human. The note with it: for Average % Change of PMN Adhesion to TNF Activated ECs: average over PMN donors (# donors in parentheses). Here is the method:
Leukocyte adherence can be measured using several assays known in the art, and the preferred assay is described by Charo, et al., 1985, Blood, 65:473. Briefly, the assay consists of labelling leukocytes with an appropriate label, incubating them with endothelial cells and determining the number of leukocytes that adhere. Preferably the cells are labelled with a gamma ray emitting isotope and the preferred labels are ^111 Indium-oxide or ^51 chromium.
Leukocytes may be isolated from human donors using standard techniques. This generally consists of isolating blood in a physiologically balanced salt solution containing an appropriate anticoagulant, and separating the leukocytes by an appropriate separation step, preferably on Ficoll-Hypaquegradients. Contaminating erythrocytes can be removed by hypotonic lysis. The resulting leukocytes are suspended in a physiologically buffered solution, pH 7.4. The preferred physiological buffered solution is Hank's balanced salt solution that is calcium and magnesium free.
The isolated leukocytes can then be labelled by incubating them for an appropriate time, generally 15 minutes, with the desired radioisotope at a predetermined concentration. The radiolabelled cells are washed to remove unincorporated label, and then suspended in an appropriate solution to perform the adhesion assay described below.
Endothelial cells can be prepared from a number of sources and by several techniques known in the art. Preferably they are obtained from human umbilical veins using the procedure of Charo et al., above. Generally, endothelial cells are isolated by enzymatic digestion of the umbilical veins using, preferably, collagenase as described by Jaffe, E. A., et al., 1973, J. of Clin. Invest, 52:2745. The cells are grown on an appropriate tissue culture substratum, preferably gelatine-coated surfaces.
The endothelial cells may be grown in a variety of tissue culture media containing appropriate supplements such as an appropriate concentration of fetal calf serum, and other supplements/additives routinely utilized by those skilled in this art that are recognized as being favorable for endothelial cells. The endothelial cells may be passaged with a dilute solution of an appropriate protease, and if desired a metal ion chelator. Preferably a solution consisting of 0.05 to 0.25% trypsin and 0.02% EDTA is used. To ensure that the cells are indeed endothelial cells, they are tested by immunofluorescence for Factor VIII antigen, a known endothelial cell marker.
Leukocyte adherence to endothelial cell monolayers may be determined as follows. Early passage endothelial cells, generally not beyond the fifth passage, are cultured on an appropriate substratum and in a suitable cell culture medium. The culture substratum is preferably pre-coated with an appropriate substance that enhances the adherence of the endothelial cells. Several such substances are known including fibronectin, poly-L-lysine, gelatin and laminin. Fibronectin is preferred. An appropriate culture substratum is a 96 well micro titer plate, and a suitable medium is Medium 199 containing fetal calf serum and other supplements known to be beneficial for the growth and maintenance of endothelial cells that are well known to those skilled in the art. Prior to adding a predetermined number of labelled leukocytes, the endothelial cell monolayer is washed with a physiologically balanced salt solution containing a reduced amount of fetal calf serum, preferably 1%. The preferred solution is RPMI supplemented with 1% fetal calf serum.
The endothelial cell monolayer containing added leukocytes is incubated for a time sufficient to permit maximum adherence of the leukocytes, and preferably this is conducted at 37° C. for 30 minutes in an appropriate cell culture atmosphere. Generally this would consist of growing and incubating the cells for the assay period in 5% CO2, 95% air, and 95% humidity. […]

The test system of assay [2] is polymorphonuclear leukocyte migration. As to the kind of experiment: Chemotaxis of polymorphonuclear leukocytes (trans-well, zymosan-activated human serum). The note with it: for inhibition of chemotaxis migration (in words): 10^-4 -10^-5 M. Type of assay: cell-based. How it is done:
The materials and methods for ascertaining the chemotactic inhibitory properties of peptides are generally known in the art, and the preferred procedure is described by Capsoni, et al., 1989, J. of Immunol. Meth., 120:125. Generally, chemotaxis is determined by positioning the leukocytes and a chemotactic substance on opposite sides of a membrane in appropriate culture media. The preferred apparatus for doing a chemotaxis assay is produced by Costar Corporation, Cambridge, Mass., and is termed the trans-well cell culture apparatus. […] If a substance is being tested for inhibitory activity this can be achieved by combining it with the leukocytes or the chemotactic substance.
The procedure of Capsoni, et al., above, was followed with the following modifications. Leukocytes may be isolated and labelled with ^111 Indium as described for the adhesion assay, above. The cells are resuspended after labelling in an appropriate cell culture medium at about 5×10^6 cells/ml. Next, a desired amount of the cell suspension is mixed with a predetermined amount of the peptide(s) to be tested for inhibitory activity, and the mixture added to an appropriate filter device. Three μm-pore membranes are situated in the wells of a 24 trans-well tissue culture plate. The cell/inhibitory peptide mixture is incubated for a short time at 37° C. to acclimate the cells to the membrane surface, and to provide sufficient time for them to settle onto the membrane surface. Next, inserts are set in wells containing cell culture media. The media contains zymosan-activated human serum at about 0.5%. Zymosan activation generates complement-derived chemotactic factors which attract the leukocytes through the pores of the membrane. This media was also prewarmed for an appropriate time prior to addition to the cell culture wells. After a 30 minute incubation period at 37° C., the number of leukocytes that have migrated through the membrane filter, in the presence or absence of CD18 peptides, is readily determined by counting the amount of ^111 Indium present in the media. This may be facilitated by adding an appropriate detergent at an appropriate concentration to the media in the wells prior to removing an aliquot for counting. In this way, the inhibitory activities of the peptide being tested could be determined.
Many of the materials and methods used to test the inhibitory activity of the CD18 peptides on the chemotactic response of the polymorphonuclear leukocytes are similar or identical to those used to perform the adhesion assays described in Example 1. Polymorphonuclear leukocytes were isolated and labelled with ^111 Indium as described before, and the cells were suspended in RPMI 1640 culture medium at a concentration of 5×10^6 /ml. Next, 75 μl of the cell suspension and 25 μl of media containing a desired concentration of a CD18 peptide were added to trans-well inserts, and the mixture was incubated at 37° C. for 10 minutes.
To the bottom wells of the 24-well plate 0.6 ml of media containing 0.5% zymosan-activated human serum was added. This solution was also warmed to 37° C. for 10 minutes prior to use.
Next, the assay was conducted by incubating the trans-well inserts containing the cell suspension with the desired CD18 peptide in the 24-well plates at 37° C. for 30 minutes. Subsequently, the inserts were removed, and 60 μl of a 10% sodium dodecyl sulphate solution was added to the wells of the 24-well plate. The plates were incubated with gentle shaking at room temperature for 15 minutes, and 110 μl aliquots were removed and the amount of ^111 Indium determined using a gamma-counter.

For the sequence “FDYPSVGQLAHKLAENNIQPIFAVT [Peptide 2-24, NH2 --Phe--Asp--Tyr--Pro--Ser--Val--Gly--Gln--Leu--Ala--His--Lys--Leu--Ala--Glu--Asn--Asn--Ile--Gln--Pro--Ile--Phe--Ala--Val--Thr--COOH]”, in assay [1] (10^-4 M), the “activity on PMN adhesion at 10^-4 M (in words)” value is given as “show activity”. Further, the “Average % Change of PMN Adhesion to TNF Activated ECs” value (“Average % Change of PMN Adhesion” for short) in assay [1] (10^-4 M) is recorded as -79%; in assay [1] (10^-6 M) it was -10%; in assay [1] (10^-8 M) it was -2%. Further, the “inhibition of chemotaxis migration (in words)” value in assay [2] was “marked inhibition”. Moreover, the “percent inhibition (-) or enhancement of polymorphonuclear leukocyte migration” value (shortened to “percent inhibition (-) or enhancement”) is reported as -48% in assay [2] (10^-4 M, donor 195); -77% in assay [2] (10^-4 M, donor 499); -73% in assay [2] (10^-4 M, donor 591); -89% in assay [2] (10^-4 M, donor 593); -33% in assay [2] (10^-5 M, donor 195); -33% in assay [2] (10^-5 M, donor 499). The “percent inhibition (-) or enhancement” value is reported as -9% in assay [2] (10^-5 M, donor 591); -40% in assay [2] (10^-5 M, donor 593); 22% in assay [2] (10^-6 M, donor 195); 0% in assay [2] (10^-6 M, donor 499); -17% in assay [2] (10^-6 M, donor 591); -22% in assay [2] (10^-6 M, donor 593).
In the case of “IPKSAVGELSEDSSNVVHLIKNAYNKLSS [Peptide 3-29, NH2 --Ile--Pro--Lys--Ser--Ala--Val--Gly--Glu--Leu--Ser--Glu--Asp--Ser--Ser--Asn--Val--Val--His--Leu--Ile--Lys--Asn--Ala--Tyr--Asn--Lys--Leu--Ser--Ser--COOH]”, the “activity on PMN adhesion at 10^-4 M (in words)” value in assay [1] (10^-4 M) is listed as “show activity”. In addition, the “Average % Change of PMN Adhesion” value in assay [1] (10^-4 M) is -58%; in assay [1] (10^-5 M) it was “+12%”; in assay [1] (10^-6 M), -5%; in assay [1] (10^-7 M), “+27%”; in assay [1] (10^-8 M) it was -2%. The “inhibition of chemotaxis migration (in words)” value in assay [2] is “marked inhibition”. Besides, the “percent inhibition (-) or enhancement” value in assay [2] (10^-4 M, donor 195) is -7%; in assay [2] (10^-4 M, donor 499) it was -33%; in assay [2] (10^-4 M, donor 591) it was -57%; in assay [2] (10^-4 M, donor 593), -85%; in assay [2] (10^-5 M, donor 195), 11%; in assay [2] (10^-5 M, donor 499), 23%. Also, the “percent inhibition (-) or enhancement” value in assay [2] (10^-5 M, donor 591) was -6%; in assay [2] (10^-5 M, donor 593), -17%; in assay [2] (10^-6 M, donor 195), -26%; in assay [2] (10^-6 M, donor 499), -10%; in assay [2] (10^-6 M, donor 591), 11%; in assay [2] (10^-6 M, donor 593), -6%.
On to “RIGFGSFVDKTVLPFVNTHPDKLRN [Peptide 6-25, NH2 --Arg--Ile--Gly--Phe--Gly--Ser--Phe--Val--Asp--Lys--Thr--Val--Leu--Pro--Phe--Val--Asn--Thr--His--Pro--Asp--Lys--Leu--Arg--Asn--COOH]”, for which the “Average % Change of PMN Adhesion” value in assay [1] (10^-4 M) is recorded as -13%; in assay [1] (10^-6 M), “+8%”; in assay [1] (10^-8 M), “+12%”. In addition, the “percent inhibition (-) or enhancement” value in assay [2] (10^-4 M, donor 195) was -4%; in assay [2] (10^-4 M, donor 499) it was -3%; in assay [2] (10^-4 M, donor 591), -16%; in assay [2] (10^-4 M, donor 593), -51%; in assay [2] (10^-5 M, donor 195) it was 11%; in assay [2] (10^-5 M, donor 499) it was -13%. Further, the “percent inhibition (-) or enhancement” value is on record as 49% in assay [2] (10^-5 M, donor 591); 26% in assay [2] (10^-5 M, donor 593); -44% in assay [2] (10^-6 M, donor 195); -8% in assay [2] (10^-6 M, donor 499); 49% in assay [2] (10^-6 M, donor 591); 20% in assay [2] (10^-6 M, donor 593).
